From patent US20070149481A1, “N,n-bridged, nitrogen-substituted carbacyclic indolocarbazoles as protein kinase inhibitors” (priority 2002, published 2007)
“And” between values parts separate entries of the source, which are not always exact repeats. Identical values can stand only once.

Columns and labels:
[1] = Solubility of free base NAD0241 and its hydrochloride salt in 99/1 water/DMSO; format: physicochemical; conditions: 18 hours equilibration at room temperature, duplicate experiments
Experimental: Stock solutions of NAD0241 (100 mM) and of its hydrochloride salt ([…]) in DMSO (UV-grade) were prepared freshly before the experiment and further diluted to a final concentration of 10 mM. These stock solutions in 100% DMSO were diluted with water (UV grade) to provide five 99/1 water/DMSO samples with varying concentrations of the compound (1000, 500, 100, 50 and 10 μM).
Each sample was thoroughly mixed by rigorous vortexing (30 seconds) followed by equilibration for 18 hours at room temperature. A […] for each sample was transferred into 1.5 mL polypropylene tubes and centrifuged for 30 minutes at room temperature at 16000 g in a fixed angle tabletop centrifuge (Heraeus Biofuge pico equipped with #3325 rotor). The supernatant was pipetted into a quartz glass cuvette and UV-absorption (322 nm) was measured in a UV spectrophotometer (Varian Cary 50). Each experiment was run in duplicate.

PKC (rat brain) = assay: Protein Kinase C inhibition assay (PKC); format: biochemical; conditions: 10 μM compound
Experimental: (§1) The ERK2 kinase activity assay utilizes a radioactivity-based format in a 96-well PCR plate with radioactive readout. The ERK2 activity was assayed in a 25 μL assay mixture containing 25 mM HEPES (pH 7.0), 250 μM ATP, 1 mM MgCl2, 1 mM DTT, 2% DMSO, 150 ng/mL Myelin Basic Protein (MBP, Sigma M-1891), and 13.6 ng/mL His tagged ERK2 (specific activity=38.1 nmol/min*mg). Compounds were screened for inhibition of the ERK2 kinase activity at a concentration of 10 μM. The kinase reaction was allowed to proceed at 37° C. for 30 minutes, then reaction was stopped by the addition of 5 μl of 0.5M EDTA (pH 8). 15 μL of each solution were then spotted onto the corresponding square of a filtermat (8×12 glassfibre mat 90×120 mm, PE-Wallac 1450-421). The filtermat was allowed to dry and washed once with 10% TCA, 2% PPA, 500 mM NaCl each for 30 minutes at rt. Two further washings in 10% TCA and 2% PPA for 30 minutes were performed, then a final 30 minute wash in 99% EtOH at rt was done and the filtermat was air dried. The dry filtermat was then placed in a sample bag with a Meltilex sheet (Melt-on scintillator sheets 73×109 mm, PE-Wallac 1450-441 for filtermat A) over the filtermat. The bag was trimmed to fit into the microplate heatsealer (PE-Wallac 1495-021). The heatsealer is used to melt the Meltilex on the filtermat. The bag containing the filtermat and the melted Meltilex was then placed into a filter cassette and counted using the Microbeta Jet Scintillation and Luminescence Counter PE-Wallac 1450.
The PKC kinase activity assay utilizes a radioactivity-based format in a 96-well PCR plate with radioactive readout. The PKC activity was assayed in a 25 μL assay mixture containing 25 mM HEPES (pH 7.0), 250 μM ATP, 10 mM MgCl2, 1 mM DTT, 1 mM EDTA (pH 8), 2 mM CaCl2, 2% DMSO, 250 ng/mL Histone H1 (Roche 1 004 875), and 165 ng/mL PKC (rat brain, Calbiochem 539494, specific activity=1600 nmol/min*mg). Compounds were screened for inhibition of the PKC kinase activity at a concentration of 10 μM. The kinase reaction was allowed to proceed at 37° C. for 30 minutes, then the reaction was stopped by addition of 5 μL of 0.5M EDTA (pH 8). The remainder of the protocol is identical to the one reported for ERK2.

His tagged ERK2 = His tagged ERK2 (Homo sapiens, UniProt P28482); assay: Extracellular signal Regulated Kinase 2 inhibition assay (ERK2), radioactive filtermat format; format: biochemical; conditions: 10 μM compound
Sequence of His tagged ERK2 (P28482 whole entry): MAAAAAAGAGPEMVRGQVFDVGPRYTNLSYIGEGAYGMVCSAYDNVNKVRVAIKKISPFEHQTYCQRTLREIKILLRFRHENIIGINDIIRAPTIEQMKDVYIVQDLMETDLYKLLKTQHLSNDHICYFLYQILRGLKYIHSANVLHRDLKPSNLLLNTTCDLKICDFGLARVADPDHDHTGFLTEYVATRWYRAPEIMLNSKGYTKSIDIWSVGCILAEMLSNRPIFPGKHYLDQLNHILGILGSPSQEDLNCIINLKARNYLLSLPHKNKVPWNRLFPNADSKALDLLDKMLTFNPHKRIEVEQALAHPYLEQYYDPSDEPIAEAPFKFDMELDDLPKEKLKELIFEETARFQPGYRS
Experimental: as §1

GSK3β = target: T1, GSK3β (Homo sapiens, UniProt P49841); assay: Glycogen Synthase Kinase 3β inhibition assay (GSK3β); format: biochemical; conditions: 10 μM compound
T1 construct: purchased Upstate Discovery
T1 sequence (P49841 whole entry, species assumed): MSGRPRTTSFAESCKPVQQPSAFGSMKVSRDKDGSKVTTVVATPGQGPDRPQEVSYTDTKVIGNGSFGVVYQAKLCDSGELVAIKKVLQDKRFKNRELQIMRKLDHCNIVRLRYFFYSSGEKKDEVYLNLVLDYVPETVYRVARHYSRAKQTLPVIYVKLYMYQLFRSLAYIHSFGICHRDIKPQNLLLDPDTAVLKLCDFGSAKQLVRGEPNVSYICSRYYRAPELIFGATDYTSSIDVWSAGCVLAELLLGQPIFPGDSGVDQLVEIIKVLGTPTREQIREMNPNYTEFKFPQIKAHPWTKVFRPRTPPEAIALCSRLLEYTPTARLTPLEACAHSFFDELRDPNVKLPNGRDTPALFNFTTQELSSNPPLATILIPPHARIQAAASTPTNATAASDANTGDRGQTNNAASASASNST
Experimental: The GSK3β kinase activity assay utilizes a radioactivity-based format in a 96-well PCR plate with radioactive readout. The GSK3 β activity was assayed in a 25 μL assay mixture containing 8 mM HEPES (pH 7.0), 250 μM ATP, 0.2 mM EDTA (pH 8), 2% DMSO, 250 ng/mL Myelin Basic Protein (MBP, Sigma M-1891), and 12 ng/mL GSK3β (Upstate Discovery, specific activity=607 nmol/min*GS2 peptide, concentration of 6.05 mg/mL). Compounds were screened for inhibition of the GSK3β kinase activity at a concentration of 10 μM. The kinase reaction was allowed to proceed at 37° C. for 30 minutes, then the reaction was stopped by addition of 5 μL of 0.5M EDTA (pH 8).

[2] = target: T2, PKA (catalytic subunit, bovine heart) (Bos taurus, UniProt P00517); assay: Protein Kinase A inhibition assay (PKA); format: biochemical; conditions: 10 μM compound
T2 construct: PKA (catalytic subunit, bovine heart, Calbiochem 539486); purchased Calbiochem 539486; host or cells: bovine heart (tissue-derived)
Experimental: as §1
The PKA kinase activity assay utilizes a radioactivity-based format in a 96-well PCR plate with radioactive readout. The PKA activity was assayed in a 25 μL assay mixture containing 25 mM HEPES (pH 7.0), 250 μM ATP, 10 mM MgCl2, 1 mM DTT, 1 mM EDTA (pH 8). 2% DMSO. 250 ng/mL Histone H2B (Roche 223 514), and 2 ng/mL PKA (catalytic subunit, bovine heart, Calbiochem 539486, specific activity=1170 pmol/min*μg). Compounds were screened for inhibition of the PKA kinase activity at a concentration of 10 μM. The kinase reaction was allowed to proceed at 37° C. for 30 minutes, then the reaction was stopped by addition of 5 μL of 0.5M EDTA (pH 8). The remainder of the protocol is identical to the one reported for ERK2.

Compound	solubility limit in water containing 1% DMSO [1]	% Inhibition PKC (PKC (rat brain)) [%]	inhibition at 10 µM (His tagged ERK2) [%]	inhibition at 10 µM (GSK3β) [%]	inhibition at 10 µM [2] [%]	% Inhibition ERK2 (His tagged ERK2) [%]	% Inhibition GSK3β (GSK3β)	% Inhibition PKA [2]
Cl.NC(=O)C1(N)CC2CC1n1c3ccccc3c3c4c(c5c6ccccc6n2c5c31)C(=O)NC4=O (stereo not drawn) [NAD0241-hydrochloride salt]	170 mgL^−1 and 214 mgL^−1	–	–	–	–	–	–	–
COc1ccc(CN2C(=O)c3c(c4c5ccccc5n5c4c4c3c3ccccc3n4C3CC5[C@](N)(C#N)C3)C2=O)cc1 (stereo partly drawn) [Compound 28]	–	28.19	48.7	25.6	< 10	–	–	–
COc1ccc(CN2C(=O)c3c(c4c5ccccc5n5c4c4c3c3ccccc3n4C3CC5[C@@H](N4CCOCC4)C3)C2=O)cc1 (stereo partly drawn) [Compound 26]	–	10.18	67.6	< 10	< 10	–	–	–
COC(=O)c1cn([C@@H]2C3CC([C@H]2O)n2c4ccccc4c4c5c(c6c7ccccc7n3c6c42)C(=O)NC5=O)nn1 (mixture of isomers) [Compound 17]	–	96.75	< 10	12.1	< 10	–	–	–
NC(=O)[C@]1(N)C[C@@H]2CC1n1c3ccc(O)cc3c3c4c(c5c6cc(O)ccc6n2c5c31)C(=O)NC4=O (mixture of isomers) [Compound 12]	–	96.63	98.1	100	99.9	–	–	–
COc1ccc(CN2C(=O)c3c(c4c5ccccc5n5c4c4c3c3ccccc3n4C3CC(N(C)C)C5C3)C2=O)cc1 (stereo not drawn) [Compound 31]	–	21.91	–	–	–	42.42	NA (NA = <10% inhibition)	NA (NA = <10% inhibition)
